Laboratory results from patent publication US20260007597A1, “COMPOSITIONS AND METHODS FOR TREATMENT OF VIRUS-INDUCED AIRWAY FIBROSIS” (priority 2022, published 2026).
“Also recorded” adds a separate entry of the source.

Experiments:
[1] = system: Wuhan pSARS infected NHBE supernatants; type: cell-based, human
[2] = system: pSARS-2 infected NHBE cells (infection-induced cell surface shedding of profibrotic enzymes); type: cell-based, human
[3] = system: SARS-COV-2 pseudovirus (pSARS-2) infected NHBE cells; type: cell-based, human; conditions: inhibitor added during clotting assay (5 U/ml hirudin, 5 μM dabigatran, 5 μM argatroban), turbidity 350 nm / confocal
[4] = target: thrombin (Homo sapiens, UniProt P00734); type: biochemical; conditions: thrombin ~0.2 U/ml; stoichiometric concentration of hirudin
[5] = system: replication competent SARS-COV-2 infected NHBE cells; type: cell-based, human; conditions: WA-1, beta and delta strains

Row | Compound | fibrin clotting step, inhibitor added post-infection [1] | fibrin clot formation, inhibitor present during the viral infection [2] | infection-induced fibrin clot formation [3] | thrombin induced fibrin clotting [4] | fibrin clotting induced by replication competent SARS-CoV-2 infection of NHBE cells [5]
1 | CNC(=O)[C@H](Cc1ccccc1)NC(=O)[C@H](CC(C)C)[C@H](CSc1cccs1)C(=O)NO [BB-94, batimastat] | did not inhibit | significantly reduced; also recorded: inhibited; also recorded: reduced fibrin clot formation |  |  | 
2 | CC1(C)SCCN(S(=O)(=O)c2ccc(Oc3ccncc3)cc2)[C@H]1C(=O)NO [prinomastat] |  | significantly reduced; also recorded: inhibited |  |  | 
3 | CC1CNc2c(cccc2S(=O)(=O)N[C@@H](CCCNC(=N)N)C(=O)N2CC[C@@H](C)C[C@@H]2C(=O)O)C1 (stereo partly shown) [argatroban] |  |  | inhibited |  | 
4 | hirudin |  |  | completely suppressed | inhibition | inhibited
